Consider three compounds from US5141627A, “Chelators whose affinity for calcium ion is increased by illumination” (The Regents of the University of California, priority 1989, dated 1992).

A short description of data set [1]: Ca2+ affinity by UV spectra during titration of EGTA or HEEDTA buffers. Format: binding. The protocol:
(§1) The titration was done at 22° C. with 10 mL of 100 mM KCl, 10 mM K-MOPS, 10 mM K2 H.HEEDTA, and 14 […] diazo-2 as starting materials, adjusting the pH to 7.24, recording the spectrum, and then discarding 1.0 mL of this solution and replacing with 1.0 mL of 100 mM KCl, 10 mM K.MOPS, 10 mM KCa.HEEDTA, 14 μM diazo-2, readjusting the pH to 7.24, and recording the spectra, which was then in 9 mM K2H.HEEDTA. Subsequent iterations to reach n mM KCa.HEEDTA, (10-n) mM HEEDTA, n=2-10, were done by discarding 10.0/(11-n) mL and replacing with equal volumes of the 10mM KCa.HEEDTA, 14 μM diazo-2 stock. After n=10 had been reached to give free Ca^2+ between 10^-5 and 10^-4 M, addition of 1 mM CaCl2 had no further effect on the spectrum. For clarity only six spectra are including in the figure, n=0, 2, 4, 6, 8, and 10. Each spectrum is labeled with the calculated free [Ca^2+ ] imposed by the HEEDTA buffer, assuming a log effective stability constant of 5.55 at pH 7.24.
(§2) The phenylacetate was produced by irradiating a 30 μM solution of diazo-2 in 100 mM KCl, 10 mM Tris.HCl, 10 mM K2 H.HEEDTA, pH 8.40, with Spectroline lamp at 365 nm to completion. The titration was then performed as in A but the pH was maintained at 8.40, at which the calculated log effective stability is constant for HEEDTA was 6.60.
(§3) Ca^2+ -binding constants for chelators before and after photolysis were determined by monitoring UV spectra during titration of EGTA or HEEDTA buffers to varying free Ca^2+ levels.
Either the ratio of, for example, [Ca.EGTA] to free [EGTA] was adjusted at a constant pH, or the pH was varied while [Ca.EGTA]=[EGTA]. These two approaches gave equivalent answers for pH>7 whenever directly tested, because of the pH insensitivity of BAPTA-like ligands (see FIG. 1 legend for more details). The apparent dissociation constants of Ca.EGTA and Ca.HEEDTA were calculated as described by R. Y. Tsien (1980); see also R. Y. Tsien, et al. (1986), S. R. Adams, et al. (1980), Grynkiewicz, et al., (1985), and Jackson, et al. (1987).

The nature of data set [2]: Quantum efficiency and completion of photolysis. Format: physicochemical. As for the experimental part:
Spectra were obtained after 0, 2, 5, 9, 16, 28, 46, 80, 150, 285, 505 and 903 sec of 365-nm illumination at 7.82×10^- 9 einsteins cm^-2 s^-1 from Spectroline lamp. For clarity only the 0-, 9-, 28-, 46-, 80-, 150-, and 505-s spectra are reproduced herein. The 505- and 903-s spectra were identical, confirming completion of photolysis after those times. Solutions were at 22±2° C.
The method was as described in FIG. 1B except that the EGTA was replaced by 2 mM CaCl2, and spectra were measured after 0-, 50-, 100-, 203-, 412-, 840-, 1730-, 4080-, and 8000-s illumination. The last two spectra were identical, confirming completion. For clarity the 50- and 8000-s spectra are omitted.
The photolysis quantum efficiencies of diazo chelators were determined by alternately irradiating a buffered solution of the substrate with a known intensity of longwave UV light, and measuring the absorbance spectrum, in apparatus described by S. R. Adams, et al. (1988), supra.

The nature of data set [3]: Yield of high affinity chelator / low-affinity side product after photolysis. Format: physicochemical. As for the experimental part:
Because of the direct conjugation of the dialkylamine moiety with the diazoketone group, diazo-2 has a large absorbance in the 350-400 nm range, which shifts 50 nm to shorter wavelengths on binding Ca^2+ (FIG. 1A). The dissociation constant for Ca^2+ is relatively high, at 2.2 μM, due to the electron withdrawing ability of the carbonyl group. Photolysis occurs at 365 nm with a quantum yield of 0.030. The peak at […] in zero Ca^2+ decreases to near baseline giving a spectrum similar to that of unsubstituted BAPTA, although a small peak remains at 355 nm (FIG. 1B). […] The reaction of diazo-2 with dilute aqueous acid should give the same product whose absorbance spectrum indeed matched that of the residual peak at 355 nm after photolysis in low Ca^2+. […] Once the extinction coefficient for the hydroxyacetyl derivative was known, the amount of the side product arising from photolysis is calculated to be about 10%.

A further data set deals with REF52 fibroblast cell. The experiment in a line: Intracellular free Ca2+ in REF52 fibroblasts on vasopressin stimulation and UV photolysis (fluo-3). Format: cell-based, Fisher rat. The conditions noted are these: 50 nM [arg8]-vasopressin. The source says:
The tetraacetoxymethyl esters of diazo-2 and diazo-3 were synthesized. The acetoxymethyl (AM) groups mask the negative charges on the carboxylate functions, so the AM ester of diazo-2 and diazo-3 can easily diffuse across the cell membrane, which is largely impermeable to ions. Once inside the cell, non-specific esterases in the cell hydrolytically cleave the AM esters and restore diazo-2 and diazo-3 to their tetracarboxylate forms, which being polyanions, are trapped within the cell. […] Prior to the start of data acquisition (t=0), the REF52 fibroblast cell was loaded with diazo-2 and fluo-3. […] Its fluorescence quantum yield is enhanced about 40-fold by Ca^2+ binding, which occurs with a Kd of 400 nM.
Prior to the start of data acquisition, the REF52 fibroblast cell was loaded with fluo-3 and diazo-2 by incubation for 30 min at 25° C. DME medium containing 1 μM diazo-2/AM and 10 μM fluo-3/AM. Acquisition of fluo-3 fluorescence intensity images was begun at time 0. The fluorescence intensity data was converted to intracellular Ca^2+ concentrations using a calibration procedure previously described. The event markers correspond to 1) stimulating the cell with 50 nM [arg^8 ]-vasopressin,and 2) flashing the cell for 1 s with UV light.
The experimental conditions were the same as in (A) except that the cell wa loaded with fluo-3 and diazo-3 (instead of diazo-2) by incubation for 90 min at 25° C. in DME medium containing 10 μm fluo-3/AM and […] diazo-3/AM. The event markers correspond to 1) stimulating the cell with 50 nM [arg^8 ]-vasopressin, and 2) flashing the cell for 1 s of UV light.
For preliminary biological tests, Fisher rat embryo fibroblast of the REF52 cell line were cultured as described by J. P. Y. Kao, et al. (1989).
For testing diazo-2, REF52 cells were incubated for 30 min at 25° C. in Dulbecco's modified Eagle's medium, buffered at pH 7.4 with 20 mM HEPES and containing 1 μM diazo-2/AM and 10 μM fluo-3/AM. For control experiments using diazo-3, the cells were incubated for 90 min at 25° C. in DMEM, buffered to pH 7.4 with 20 mM HEPES and containing 1 μM diazo-3/AM and […] fluo-3/AM. After loading, the cells were gently washed, transferred into Hanks' Balanced Salt Solution containing 0.2 mM sulfinpyrazone to inhibit non-specific organic anion transport (see Tsien, 1989), and mounted on a 25° C. microscope stage for experimentation.
Flash photolysis of trapped cellular diazo-2 and the concomitant monitoring of intracellular free Ca^2+ concentration with fluo-3, a fluorescent Ca^2+ indicator, were performed using methodology and instrumentation described in A. Minta, et al (1989) and J. P. Y. Kao, et al. (1989). Briefly, output form a Xe arc lamp was passed through a monochromator to yield the 490 nm light used to probe the fluo-3 trapped intracellularly. The fluo-3 fluorescence images of cells were recorded using a SIT TV camera. Images were stored on a high-resolution monochrome laser disc recorder (Panasonic TQ-2028) for delayed processing. Photolyses were performed by briefly moving a chopper mirror to send broad-band UV from an XBO 75 W xenon arc lamp and UG-2 filter into the microscope instead of 490 nm fluo-3 excitation. The microscope objective (Nikon UV-CF, 40X) was chosen for its high UV transmission and numerical aperture (1.3). […] The same computer was used to analyze the fluorescence images acquired during the experiment.

A short description of data set [4]: Absorbance spectra of free and Ca2+-bound chelators. The class given is physicochemical. As for the experimental part:
as §1, §2
Proton magnetic resonance spectra (^1 H NMR) were recorded on a Varian EM-390 90-MHz spectrometer in CDCl3 unless otherwise noted, and the chemical shifts are given in δ values relative to tetramethylsilane. Ultraviolet (UV) absorbance spectra were recorded on a Cary 210 or a Perkin-Elmer Lambda Array 3840 spectrophotometer at 20°±2° C. Melting points are in Centigrade and are uncorrected. Elemental analyses were performed by the Microanalytical Laboratory in the Department of Chemistry, University of California, Berkeley, Calif.

Data set [5] is described as follows: Mg2+ affinity in Mg/EGTA buffers. Format: binding. The conditions noted are these: after photolysis; 0.1-0.15M ionic strength, pH 7.0-7.4, 20-23° C.; read-out: Kd (Mg2+), after photolysis. As for the experimental part:
as §3
Free [Mg^2+ ] was likewise controlled by Mg/EGTA buffers, assuming an apparent dissociation constant for the Mg.EGTA complex (including its monoprotonated form) of 6 mM at pH 7.60 in 0.1M ionic strength; see R. Y. Tsien, et al. (1986) and A. E. Martell, et al. (1974).

Bridges are numbered along the chain shown (N, C = ends). Where no end group is shown, it is not given here.

Consider `Cc1ccc(N(CC(=O)O)CC(=O)O)c(OCCOc2cc(C(=O)CO)ccc2N(CC(=O)O)CC(=O)O)c1` [para-(2-hydroxyacetyl) derivative], for which the Kd in data set [1] (side product after photolysis of diazo-2, from deviation of Hill plot, read-out: dissociation constant of side product) was around 1 µM. Besides, the “photosensitivity (in words)” value in data set [2] (product of diazo-2 with dilute aqueous acid) is “complete lack of photosensitivity”. Further, the “amount of side product arising from photolysis” value in data set [3] (hydroxyacetyl derivative, from photolysis of diazo-2, calculated) is “about 10%”.
On to “[arg^8 ]-vasopressin: stimulus of the REF52 cell, 50 nM (CYFQNCPRG-NH2; disulfide 1-6; UniProt P01185 20-28, looked up) [reference compound]”, for which the “[Ca2+]i response to stimulation (in words)” value in the data set with REF52 fibroblast cell is “sharp but transient rise”. In addition, the “[Ca2+]i plateau after stimulation” value in the data set on REF52 fibroblast cell (before UV) is “about 200 nM”.
As to `[N-]=[N+]=CC(=O)c1ccc(N(CC(=O)O)CC(=O)O)c(OCCOc2cc(C(=O)C=[N+]=[N-])ccc2N(CC(=O)O)CC(=O)O)c1` [diazo-4, 1,2-bis(2-bis(carboxymethyl)amino-5-(diazoacetyl)phenoxy)ethane], the “εmax, +Ca2+” value in data set [4] (+Ca2+, at λmax) is listed as 42.3 10^-3, M^-1 cm^-1. Further, the “λmax, +Ca2+” value in data set [4] (+Ca2+, dominant peak at longest wavelength) came to 320 nm. For the same compound, the “εmax, free” value in data set [4] (free (zero Ca2+), at λmax) is on record as 46.0 10^-3, M^-1 cm^-1. The “λmax, free” value in data set [4] (free (zero Ca2+), dominant peak at longest wavelength) amounted to 371 nm. Besides, the Kd in data set [1] (after photolysis, 0.1-0.15M ionic strength, 20-23° C., read-out: Kd (Ca2+), after photolysis) came to 0.055 µM; in data set [1] (before photolysis, 0.1-0.15M ionic strength, pH 7.0-7.4, 20-23° C., read-out: Kd (Ca2+), before photolysis) it was 89 µM; in data set [5], 2600 µM. Further, in data set [1] (complete photolysis), the “change in Ca2+ affinity upon photolysis” value is reported as 1600 fold. Also, the “quantum yield relative to diazo-2” value in data set [2] (compared with diazo-2) is “approximately half that of diazo-2”. For the same compound, the “Φ quantum efficiency of photolysis, +Ca2+” value in data set [2] (saturating [Ca2+]) amounted to 0.015. Also, the “Φ quantum efficiency of photolysis, free” value in data set [2] (zero [Ca2+]) worked out at 0.015. In data set [3] (after photolysis), the “Photolysis yield (yield of high affinity Ca2+ chelator after photolysis)” value was 88. Further, the “low-affinity side product on complete photolysis, expected” value in data set [3] (complete photolysis, expected) amounted to 19%. Besides, the “low-affinity side product on complete photolysis, measured” value in data set [3] (residual absorbance at 355 nm) is 20%.
